# System: 299254-011-R-J1-PDC complex spheroid viability
# Experiment: Anticancer human tumor 299254-011-R-J1-PDC patient-derived melanoma cell line growth inhibition [POLQ]
# Settings: for IC50: curve of first compound; for viability, T/C: stronger effect = lower value
# How it was run: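 Patient-derived tumour cells were co-cultured with HUVEC and mesenchymal stem cells as multicellular spheroids at 37 °C. They were treated with POLQ inhibitors (novobiocin, ART-558, RP6685) alone or combined with other agents. Top concentrations were at or near clinical Cmax (otherwise 10 microM; SN-38 at 1 microM), decreasing in half-log steps.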
# [1] = second compound 0.0316 µM, first compound 0.0316 µM
# [2] = second compound 0.0316 µM, first compound 0.1 µM
# [3] = second compound 0.1 µM, first compound 0.0316 µM
# [4] = second compound 0.1 µM, first compound 0.1 µM
# [5] = second compound 0.316 µM, first compound 0.0316 µM
# [6] = second compound 0.316 µM, first compound 0.1 µM
# [7] = second compound 1 µM, first compound 0.0316 µM
# [8] = second compound 1 µM, first compound 0.1 µM
# [9] = second compound 3.16 µM, first compound 0.0316 µM
# [10] = second compound 3.16 µM, first compound 0.1 µM
# [11] = second compound 10 µM, first compound 0.0316 µM
# [12] = second compound 10 µM, first compound 0.1 µM
# 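Further: spheroids exposed to drugs for one week before measurement.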
# 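Wherever viability, T/C is given: percent viability relative to DMSO vehicle control taken as 100%.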
compound,measurement,setting,value
COc1ccc([C@@H](O)c2cc(-c3ncnc4cc(N5CCOCC5)ccc34)c(F)cc2Cl)nn1 + COC1C(OC(N)=O)C(O)C(Oc2ccc3c(O)c(NC(=O)c4ccc(O)c(CC=C(C)C)c4)c(=O)oc3c2C)OC1(C)C,IC50,second compound 0.0316 µM,9.66 µM
same,IC50,second compound 0.1 µM,8.91 µM
same,IC50,second compound 0.316 µM,8.8 µM
same,IC50,second compound 1 µM,> 10 µM
same,IC50,second compound 3.16 µM,> 10 µM
same,IC50,second compound 10 µM,8.74 µM
same,"viability, T/C",[1],103%
same,"viability, T/C",[2],90.6%
same,"viability, T/C","second compound 0.0316 µM, first compound 0.316 µM",97.7%
same,"viability, T/C","second compound 0.0316 µM, first compound 1 µM",109%
same,"viability, T/C","second compound 0.0316 µM, first compound 3.16 µM",102%
same,"viability, T/C","second compound 0.0316 µM, first compound 10 µM",48.3%
same,"viability, T/C",[3],115%
same,"viability, T/C",[4],109%
same,"viability, T/C","second compound 0.1 µM, first compound 0.316 µM",114%
same,"viability, T/C","second compound 0.1 µM, first compound 1 µM",99%
same,"viability, T/C","second compound 0.1 µM, first compound 3.16 µM",89.8%
same,"viability, T/C","second compound 0.1 µM, first compound 10 µM",45.4%
same,"viability, T/C",[5],116%
same,"viability, T/C",[6],125%
same,"viability, T/C","second compound 0.316 µM, first compound 0.316 µM",118%
same,"viability, T/C","second compound 0.316 µM, first compound 1 µM",106%
same,"viability, T/C","second compound 0.316 µM, first compound 3.16 µM",86.7%
same,"viability, T/C","second compound 0.316 µM, first compound 10 µM",45.4%
same,"viability, T/C",[7],118%
same,"viability, T/C",[8],107%
same,"viability, T/C","second compound 1 µM, first compound 0.316 µM",101%
same,"viability, T/C","second compound 1 µM, first compound 1 µM",110%
same,"viability, T/C","second compound 1 µM, first compound 3.16 µM",90.6%
same,"viability, T/C","second compound 1 µM, first compound 10 µM",54.5%
same,"viability, T/C",[9],128%
same,"viability, T/C",[10],96.3%
same,"viability, T/C","second compound 3.16 µM, first compound 0.316 µM",109%
same,"viability, T/C","second compound 3.16 µM, first compound 1 µM",103%
same,"viability, T/C","second compound 3.16 µM, first compound 3.16 µM",85.1%
same,"viability, T/C","second compound 3.16 µM, first compound 10 µM",51.1%
same,"viability, T/C",[11],107%
same,"viability, T/C",[12],107%
same,"viability, T/C","second compound 10 µM, first compound 0.316 µM",105%
same,"viability, T/C","second compound 10 µM, first compound 1 µM",87.1%
same,"viability, T/C","second compound 10 µM, first compound 3.16 µM",92.9%
same,"viability, T/C","second compound 10 µM, first compound 10 µM",44%
Cn1ncnc1[C@H]1c2n[nH]c(=O)c3cc(F)cc(c23)N[C@@H]1c1ccc(F)cc1 + COC1C(OC(N)=O)C(O)C(Oc2ccc3c(O)c(NC(=O)c4ccc(O)c(CC=C(C)C)c4)c(=O)oc3c2C)OC1(C)C,IC50,second compound 0.0316 µM,> 0.1 µM
same,IC50,second compound 0.1 µM,> 0.1 µM
same,IC50,second compound 0.316 µM,> 0.1 µM
same,IC50,second compound 1 µM,> 0.1 µM
same,IC50,second compound 3.16 µM,> 0.1 µM
same,IC50,second compound 10 µM,> 0.1 µM
same,"viability, T/C","second compound 0.0316 µM, first compound 0.000316 µM",106%
same,"viability, T/C","second compound 0.0316 µM, first compound 0.001 µM",84.4%
same,"viability, T/C","second compound 0.0316 µM, first compound 0.00316 µM",101%
same,"viability, T/C","second compound 0.0316 µM, first compound 0.01 µM",98.8%
same,"viability, T/C",[1],97%
same,"viability, T/C",[2],98.1%
same,"viability, T/C","second compound 0.1 µM, first compound 0.000316 µM",101%
same,"viability, T/C","second compound 0.1 µM, first compound 0.001 µM",91.3%
same,"viability, T/C","second compound 0.1 µM, first compound 0.00316 µM",105%
same,"viability, T/C","second compound 0.1 µM, first compound 0.01 µM",90.9%
same,"viability, T/C",[3],106%
same,"viability, T/C",[4],87.6%
same,"viability, T/C","second compound 0.316 µM, first compound 0.000316 µM",89.4%
same,"viability, T/C","second compound 0.316 µM, first compound 0.001 µM",94.6%
same,"viability, T/C","second compound 0.316 µM, first compound 0.00316 µM",101%
same,"viability, T/C","second compound 0.316 µM, first compound 0.01 µM",92%
same,"viability, T/C",[5],107%
same,"viability, T/C",[6],96.2%
same,"viability, T/C","second compound 1 µM, first compound 0.000316 µM",105%
same,"viability, T/C","second compound 1 µM, first compound 0.001 µM",111%
same,"viability, T/C","second compound 1 µM, first compound 0.00316 µM",102%
same,"viability, T/C","second compound 1 µM, first compound 0.01 µM",118%
same,"viability, T/C",[7],96.5%
same,"viability, T/C",[8],97.4%
same,"viability, T/C","second compound 3.16 µM, first compound 0.000316 µM",99.7%
same,"viability, T/C","second compound 3.16 µM, first compound 0.001 µM",103%
same,"viability, T/C","second compound 3.16 µM, first compound 0.00316 µM",98.9%
same,"viability, T/C","second compound 3.16 µM, first compound 0.01 µM",93.2%
same,"viability, T/C",[9],103%
same,"viability, T/C",[10],100%
same,"viability, T/C","second compound 10 µM, first compound 0.000316 µM",106%
same,"viability, T/C","second compound 10 µM, first compound 0.001 µM",105%
same,"viability, T/C","second compound 10 µM, first compound 0.00316 µM",115%
same,"viability, T/C","second compound 10 µM, first compound 0.01 µM",112%
same,"viability, T/C",[11],119%
same,"viability, T/C",[12],99.6%
